Source: patent US11730720B2, “ALK5 inhibitors” (THERAVANCE BIOPHARMA R&D IP, LLC, priority 2018, dated 2023)

What was measured:
[1] = biological target: T1, recombinant human ALK5 (TGF-βR1) protein (Homo sapiens, UniProt P36897); experiment: Biochemical ALK5 (TGF-βR1) assay to measure pKi (LANCE Ultra ULight kinase assay); conditions: apparent pKi, converted from pIC50 using the Cheng-Prusoff equation
T1 construct: purchased Life Technologies PR9075A
T1 sequence (P36897 34-503): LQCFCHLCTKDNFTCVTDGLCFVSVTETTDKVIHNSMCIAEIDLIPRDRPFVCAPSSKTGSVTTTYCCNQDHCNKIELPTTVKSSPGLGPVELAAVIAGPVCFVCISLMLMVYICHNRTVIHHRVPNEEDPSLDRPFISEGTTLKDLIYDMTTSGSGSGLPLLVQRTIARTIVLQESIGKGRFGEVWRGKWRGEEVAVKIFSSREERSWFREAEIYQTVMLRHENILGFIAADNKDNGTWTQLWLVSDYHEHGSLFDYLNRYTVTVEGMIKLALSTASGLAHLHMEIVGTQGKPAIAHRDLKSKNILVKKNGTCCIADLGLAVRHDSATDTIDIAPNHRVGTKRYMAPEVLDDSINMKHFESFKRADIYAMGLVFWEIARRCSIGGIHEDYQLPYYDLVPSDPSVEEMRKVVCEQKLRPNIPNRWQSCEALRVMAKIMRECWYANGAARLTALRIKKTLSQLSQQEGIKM
Summary of the method: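 TR-FRET kinase format: compound dose range 10 μM–25 pM equilibrated 60 min with human ALK5 and ULight-labelled topoisomerase 2α peptide in HEPES/MgCl2 buffer pH 7.5 with DTT. Reaction started with ATP (125 μM stock, 5× final), 60 min at 37° C, stopped with EDTA/Eu-anti-phospho antibody; pKi derived from pIC50 via Cheng-Prusoff.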

[2] = tested on: TGF-β-stimulated SMAD3 phosphorylation in BEAS-2B cells; experiment: Cellular ALK5 potency assay, inhibition of TGF-β stimulated pSMAD3 formation in BEAS-2B cells; type: cell-based; conditions: Homo sapiens, inhibition of TGF-β (10 ng/mL) stimulated pSMAD3 formation, 1 hour compound incubation, read-out: BEAS2B pIC50 (converted)
Summary of the method: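 Phospho-SMAD3 was quantified by AlphaLISA in lysates of human lung epithelial BEAS-2B cells. Compound was added 1 h (37 °C, HEPES/BSA-supplemented HBSS) before a 30 min challenge with 10 ng/mL TGF-β. Values are pIC50 relative to stimulated cells without compound.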

SMILES	Ki [1] [nM]	IC50 [2] [nM]
Fc1cc(F)c(-c2n[nH]cc2-c2ccc3ncc(-c4cnn(CC5CNC5)c4)cc3n2)cc1Cl [Compound 6-42, 7-[1-(azetidin-3-ylmethyl)pyrazol-4-yl]-2-[3-(5-chloro-2,4-difluoro-phenyl)-1H-pyrazol-4-yl]-1,5-naphthyridine]	0.0398 to 0.316	25.1 to 158
Oc1cnc2ccc(-c3c[nH]nc3-c3cc(Cl)ccc3F)nc2c1 [Compound 1-102, 6-[3-(5-chloro-2-fluoro-phenyl)-1H-pyrazol-4-yl]-1,5-naphthyridin-3-ol]	0.398 to 3.16	≤ 20
CC(CO)N1CCN(CCNc2cnc3ccc(-c4c[nH]nc4-c4cc(Cl)c(F)cc4F)nc3c2)CC1 (stereo not shown) [Compound 6-72, 2-[4-[2-[[6-[3-(5-chloro-2,4-difluoro-phenyl)-1H-pyrazol-4-yl]-1,5-naphthyridin-3-yl]amino]ethyl]piperazin-1-yl]propan-1-ol]	0.0398 to 0.316	25.1 to 158
Fc1ccc(Cl)cc1-c1n[nH]cc1-c1ccc2ncc(N[C@@H]3CCNC3)cc2n1 [Compound 1-19, 6-[3-(5-chloro-2-fluoro-phenyl)-1H-pyrazol-4-yl]-N-[(3R)-pyrrolidin-3-yl]-1,5-naphthyridin-3-amine]	0.398 to 3.16	25.1 to 158
CNCCn1cc(-c2cnc3ccc(-c4c[nH]nc4-c4cc(Cl)c(F)cc4F)nc3c2)nn1 [Compound 6-67, 2-[4-[6-[3-(5-chloro-2,4-difluoro-phenyl)-1H-pyrazol-4-yl]-1,5-naphthyridin-3-yl]triazol-1-yl]-N-methyl-ethanamine]	≤ 0.0316	25.1 to 158
CCOC(=O)[C@H]1CN(c2cnc3ccc(-c4nc[nH]c4-c4cc(Cl)ccc4F)nc3c2)CCN1 [Compound 2-38, ethyl (2R)-4-[6-[5-(5-chloro-2-fluoro-phenyl)-1H-imidazol-4-yl]-1,5-naphthyridin-3-yl]piperazine-2-carboxylate]	3.98 to 31.6	25.1 to 158
COC(=O)CC1CN(c2cnc3ccc(-c4c[nH]nc4-c4cc(Cl)ccc4F)nc3c2)CCN1 (stereo not shown) [Compound 1-136, methyl 2-[4-[6-[3-(5-chloro-2-fluoro-phenyl)-1H-pyrazol-4-yl]-1,5-naphthyridin-3-yl]piperazin-2-yl]acetate]	0.0398 to 0.316	≤ 20
CCN1CCN(CCNc2cnc3ccc(-c4c[nH]nc4-c4cc(Cl)c(F)cc4F)nc3c2)CC1 [Compound 6-3, 6-[3-(5-chloro-2,4-difluoro-phenyl)-1H-pyrazol-4-yl]-N-[2-(4-ethylpiperazin-1-yl)ethyl]-1,5-naphthyridin-3-amine]	0.0398 to 0.316	≤ 20
Fc1ccc(Cl)cc1-c1n[nH]cc1-c1ccc2ncc(NCC3CCN3)cc2n1 (stereo not shown) [Compound 1-17, N-(azetidin-2-ylmethyl)-6-[3-(5-chloro-2-fluoro-phenyl)-1H-pyrazol-4-yl]-1,5-naphthyridin-3-amine]	0.0398 to 0.316	25.1 to 158
Fc1cc(F)c(-c2n[nH]cc2-c2ccc3ncc(-c4cnn5c4CNCC5)cc3n2)cc1Cl [Compound 6-45, 2-(3-(5-chloro-2,4-difluorophenyl)-1H-pyrazol-4-yl)-7-(4,5,6,7-tetrahydropyrazolo[1,5-a]pyrazin-3-yl)-1,5-naphthyridine]	0.0398 to 0.316	25.1 to 158
Fc1ccc(Cl)cc1-c1[nH]cnc1-c1ccc2ncc(-c3cc4n(n3)CCNC4)cc2n1 [Compound 2-21, 2-(5-(5-chloro-2-fluorophenyl)-1H-imidazol-4-yl)-7-(4,5,6,7-tetrahydropyrazolo[1,5-a]pyrazin-2-yl)-1,5-naphthyridine]	0.0398 to 0.316	25.1 to 158
CC1(C)CCCN1CCNc1cnc2ccc(-c3c[nH]nc3-c3ccc(F)c(F)c3)nc2c1 [Compound 8-2, 6-[3-(3,4-difluorophenyl)-1H-pyrazol-4-yl]-N-[2-(2,2-dimethylpyrrolidin-1-yl)ethyl]-1,5-naphthyridin-3-amine]	3.98 to 31.6	25.1 to 158
CNC1CCN(c2cnc3ccc(-c4c[nH]nc4-c4cc(Cl)ccc4F)nc3c2)CC1 [Compound 1-60, 1-[6-[3-(5-chloro-2-fluoro-phenyl)-1H-pyrazol-4-yl]-1,5-naphthyridin-3-yl]-N-methyl-piperidin-4-amine]	0.0398 to 0.316	25.1 to 158
COC(=O)CC1CN(CCNc2cnc3ccc(-c4c[nH]nc4-c4cc(Cl)c(F)cc4F)nc3c2)CCN1 (stereo not shown) [Compound 6-75, methyl 2-[4-[2-[[6-[3-(5-chloro-2,4-difluoro-phenyl)-1H-pyrazol-4-yl]-1,5-naphthyridin-3-yl]amino]ethyl]piperazin-2-yl]acetate]	0.398 to 3.16	25.1 to 158
O=C(OCc1ccccc1)N1CCC2(CCN(c3cnc4ccc(-c5c[nH]nc5-c5cc(Cl)ccc5F)nc4c3)C2)C1 (stereo not shown) [Compound 1-35, benzyl 7-[6-[3-(5-chloro-2-fluoro-phenyl)-1H-pyrazol-4-yl]-1,5-naphthyridin-3-yl]-2,7-diazaspiro[4.4]nonane-2-carboxylate]	3.98 to 31.6	200 to 1260
Fc1cc(F)c(-c2n[nH]cc2-c2ccc3ncc(-c4cn5c(n4)CNCC5)cc3n2)cc1Cl [Compound 6-52, 2-[3-(5-chloro-2,4-difluoro-phenyl)-1H-pyrazol-4-yl]-7-(5,6,7,8-tetrahydroimidazo[1,2-a]pyrazin-2-yl)-1,5-naphthyridine]	0.0398 to 0.316	25.1 to 158

The next lines start with results.

Ki [1] [nM]	SMILES	IC50 [2] [nM]
0.398 to 3.16	Fc1ccc(Cl)cc1-c1[nH]cnc1-c1ccc2ncc(-c3cnc4n3CCNC4)cc2c1 [Compound 17-10, 6-[5-(5-chloro-2-fluoro-phenyl)-1H-imidazol-4-yl]-3-(5,6,7,8-tetrahydroimidazo[1,2-a]pyrazin-3-yl)quinoline]	25.1 to 158
0.398 to 3.16	CN1CCN(C2CCN(c3cnc4ccc(-c5c[nH]nc5-c5ccc(F)c(F)c5)nc4c3)CC2)CC1 [Compound 8-3, 2-(3-(3,4-difluorophenyl)-1H-pyrazol-4-yl)-7-(4-(4-methylpiperazin-1-yl)piperidin-1-yl)-1,5-naphthyridine]	25.1 to 158
0.398 to 3.16	Fc1ccc(Cl)cc1-c1nc2ccccn2c1-c1ccc2ncc(N3CCCNCC3)cc2c1 [Compound 19-8, 6-[2-(5-chloro-2-fluoro-phenyl)imidazo[1,2-a]pyridin-3-yl]-3-(1,4-diazepan-1-yl)quinoline]	200 to 1260
0.0398 to 0.316	CNCCn1cc(-c2cnc3ccc(-c4nc[nH]c4-c4ccc(F)c(F)c4)cc3c2)cn1 [Compound 23-2, 2-[4-[6-[5-(3,4-difluorophenyl)-1H-imidazol-4-yl]-3-quinolyl]pyrazol-1-yl]-N-methyl-ethanamine]	25.1 to 158
0.398 to 3.16	CC(C)N1CCN(CCNc2cnc3ccc(-c4nc[nH]c4-c4cc(Cl)ccc4F)cc3c2)CC1 [Compound 17-3, 6-(5-(5-chloro-2-fluorophenyl)-1H-imidazol-4-yl)-N-(2-(4-isopropylpiperazin-1-yl)ethyl)quinolin-3-amine]	25.1 to 158
3.98 to 31.6	CC(C)N1CCN(CCNc2cnc3ccc(-c4c[nH]nc4-c4ccc(F)cc4F)nc3c2)CC1 [Compound 10-2, 6-(3-(2,4-difluorophenyl)-1H-pyrazol-4-yl)-N-(2-(4-isopropylpiperazin-1-yl)ethyl)-1,5-naphthyridin-3-amine]	25.1 to 158
0.398 to 3.16	Fc1ccc(-c2n[nH]cc2-c2ccc3ncc(C4=CCNC4)cc3n2)cc1F [Compound 8-20, 2-[3-(3,4-difluorophenyl)-1H-pyrazol-4-yl]-7-(2,5-dihydro-1H-pyrrol-3-yl)-1,5-naphthyridine]	25.1 to 158
